Counter-ions that a name gives are not always drawn.
System: mucus production of rabbit
Assay: Activity on mucus production of rabbit (method of R. Scuri and Coll.)
Type: in vivo
Conditions: for Mucoproduction at hours 0 - 4: mean ± E.S.; for change in vivo at 400 mg/kg / change in vivo at 600 mg/kg: po
[1] = Oryctolagus cuniculus, iv, 10 mg/kg i.v., 0-4 h vs -4-0 h, read-out: Mucoproduction Var. %
[2] = Oryctolagus cuniculus, 400 mg/kg os, 0-4 h vs -4-0 h, read-out: Mucoproduction Var. %
[3] = Oryctolagus cuniculus, 600 mg/kg os, 0-4 h vs -4-0 h, read-out: Mucoproduction Var. %

CC1=CCC(CC2SCCN2C(=O)c2ccccc2C(=O)[O-])C1(C)C.[Na+] (stereo not shown) [CO/1178, 2-[(2-{2',2',3'-trimethyl-cyclopenten-3'yl}-methyl)-1,3-thiazolidin-3-yl]-carbonyl-benzoic acid, Na salt]
Mucoproduction Var. % (10 mg/kg i.v., 0-4 h vs -4-0 h): +19.9%
Mucoproduction at hours 0 - 4 (10 mg/kg i.v.): 26.890 ± 6.210 mg/h

O=C(O)c1cccnc1C(=O)N1CCSC1 [CO/1242, 2-(1,3-thiazolidin-3-yl)-carbonyl-3-pyridine-carboxylic acid (Na salt)]
Mucoproduction at hours 0 - 4 (10 mg/kg i.v.): 31.030 ± 2.840 mg/h
change in vivo at 10 mg/kg [1]: 39%

CC(S)C(=O)NCC(=O)O (racemic) [Mercaptopropionylglycine]
Mucoproduction at hours 0 - 4 (10 mg/kg i.v.): 32.121 ± 1.013 mg/h
Mucoproduction at hours 0 - 4 (20 mg/kg i.v.): 36.630 ± 1.565 mg/h
Mucoproduction at hours 0 - 4 (400 mg/kg os): 32.053 ± 1.292 mg/h
Mucoproduction at hours 0 - 4 (600 mg/kg os): 34.432 ± 1.813 mg/h
change in vivo at 10 mg/kg [1]: 33.8%
change in vivo at 20 mg/kg (Oryctolagus cuniculus, iv, 20 mg/kg i.v., 0-4 h vs -4-0 h, read-out: Mucoproduction Var. %): 43%
change in vivo at 400 mg/kg [2]: 45%
change in vivo at 600 mg/kg [3]: 49.9%

CN(Cc1cc(Br)cc(Br)c1N)C1CCCCC1 [Bromexine]
Mucoproduction at hours 0 - 4 (400 mg/kg os): 27.414 ± 1.071 mg/h
Mucoproduction at hours 0 - 4 (600 mg/kg os): 34.440 ± 1.446 mg/h
change in vivo at 400 mg/kg [2]: 31.3%
change in vivo at 600 mg/kg [3]: 40.6%

Source: patent US4477458A, “Thiazolidine derivatives and their mucolytic compositions and methods” (Camillo Corvi S.p.A., priority 1981, dated 1984)
